Test systems include OVCAR-8; HCT-15; T47D; NCI-H460; UO-31; SNB-75; Malme-3M; NCI-H226; 786-0; M14; HCT-116; TK-10; SF-539; OVCAR-5; SF-295; RXF 393; HL-60; OVCAR-4; SK-MEL-2; UACC-257.
Assay in all cases: NCI-60 cell line screen, 48 h

The structures appear in SMILES notation.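 Briefly, cells in 96-well plates were exposed to five compound concentrations for 48 h, and endpoints were estimated by linear interpolation. Here, GI50 denotes the concentration required for 50% inhibition of growth.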 Activity calls are given as the source filed them. Rule as the data show it: active = GI50 up to about 1.1 µM and inactive = higher.

Here are results for three compounds from ChEMBL document CHEMBL1201862, “PubChem BioAssay data set” (2004).

For the compound `CC(CCC(=O)O)(c1cc(Br)c(O)c(Br)c1)c1cc(Br)c(O)c(Br)c1`, the GI50 in the test on OVCAR-8 is 78.2 µM (inactive); in the test on HCT-15 it was 54.3 µM; in the test with T47D, 29.9 µM (inactive); in the test with NCI-H460, 40.6 µM (inactive); in the test on UO-31, 66.7 µM (inactive); in the test with SNB-75, 55.7 µM (inactive). For the same compound, the GI50 was 58.9 µM (inactive) in the test on Malme-3M; 31.3 µM (inactive) in the test on NCI-H226; > 100 µM (inactive) in the test with 786-0; 33.3 µM (inactive) in the test on M14; 50.4 µM (inactive) with HCT-116; > 100 µM (inactive) with TK-10. Besides, the GI50 in the test with SF-539 is 50.4 µM (inactive); in the test with OVCAR-5 it was > 100 µM (inactive); in the test with SF-295, 98.4 µM (inactive); in the test with RXF 393, 54.8 µM (inactive); in the test on HL-60, 21.4 µM (inactive); in the test on OVCAR-4, > 100 µM (inactive). Further, the GI50 in the test with SK-MEL-2 is 52.4 µM (inactive); with UACC-257 it was 76 µM (inactive).
As to `c1ccc(C2=NN(c3nc4ccccc4s3)C3(CCCCC3)N2)nc1`, the GI50 was 31.8 µM (inactive) in the test on OVCAR-8; 32.8 µM in the test with HCT-15; 7.64 µM (inactive) in the test on T47D; 15.2 µM (inactive) in the test on NCI-H460; 35.1 µM (inactive) in the test with UO-31; 25.6 µM (inactive) in the test with SNB-75. In addition, the GI50 with Malme-3M is 11.7 µM (inactive); in the test with NCI-H226 it was 19.4 µM (inactive); in the test on 786-0, 18.3 µM (inactive); in the test on M14, 21.4 µM (inactive); in the test on HCT-116 it was 26.4 µM (inactive); in the test with TK-10, 21.8 µM (inactive). For the same compound, the GI50 in the test with SF-539 was 46.3 µM (inactive); in the test on OVCAR-5, 43.5 µM (inactive); in the test with SF-295 it was 27.8 µM (inactive); in the test with RXF 393, 21.9 µM (inactive); with HL-60 it was 25.2 µM (inactive); with OVCAR-4, 24.8 µM (inactive). The GI50 was 18.4 µM (inactive) in the test with SK-MEL-2 and 16.7 µM (inactive) with UACC-257.
For `C[C@@H](CC(O)C(O)C(C)(C)O)C1CCC23CC12CCC1[C@@]2(C)CCC(O)C(C)(C)C2CC(OC2OC(CO)C(O)C(O)C2O)[C@]13C` (stereo not given in full), the GI50 in the test with OVCAR-8 was > 10 µM (inactive); in the test on HCT-15, over 10 µM; in the test on T47D, > 10 µM (inactive); in the test on NCI-H460 it was > 10 µM (inactive); with UO-31, > 10 µM (inactive); with SNB-75 it was > 10 µM (inactive). Besides, the GI50 in the test with Malme-3M, in the test with NCI-H226, in the test on 786-0, in the test with M14, with HCT-116 and in the test on TK-10 was > 10 µM (inactive) throughout. The GI50 in the test on SF-539, in the test with OVCAR-5, with SF-295, in the test on RXF 393, in the test with HL-60 and in the test on OVCAR-4 was > 10 µM (inactive) each time. For the same compound, the GI50 in the test with SK-MEL-2 and in the test with UACC-257 was > 10 µM (inactive) each time.
